Assays:
[1] = biological target: T1, Adrenergic receptor beta (Homo sapiens) (UniProt P08588+P07550+P13945); conditions: Cavia porcellus
Description: Tested for potent Beta adrenergic receptor action in the atria of guinea pig

[2] = biological target: T1, Adrenergic receptor beta (Homo sapiens); conditions: Cavia porcellus; remark: listed apart in the source

pD2 [1]: 8.8
pD2 [2]: 7.8
Structure (SMILES): COc1cc(CC2NCCc3cc(O)c(O)cc32)cc(OC)c1OC (configuration not stated)

— ChEMBL document CHEMBL1121413, “Synthesis, beta-adrenergic activity, and platelet antiaggregatory activity of a positional isomer of trimetoquinol: 1-(2',4',5'-trimethoxybenzyl)-6,7-dihydroxy-1,2,3,4,-tetrahydroisoquinoline” (J Med Chem, 1980)
